# Measurements: patent US20230181581A1, “CIRCULATING B CELL SUBPOPULATIONS IN INDOLENT B CELL LYMPHOMA” (Alexion Pharmaceuticals, Inc., priority 2020, published 2023)
# Values joined by “and” are separate entries in the source; they are usually repeats but may differ in a detail not shown here. Identical values can stand only once. “Also recorded” adds a separate entry of the source.
# Tests used:
# Format in all cases: in vivo, human
# [1] = system: patients with indolent B cell lymphoma (iNHL); experiment: Phase IIa study: patient disposition (discontinuation, treatment duration) on single agent cerdulatinib; details: r/r iNHL, 30 mg BID
# Description: (§1) This example describes a phase IIa study designed to determine the safety, efficacy, pharmacokinetics, and pharmacodynamics of cerdulatinib at the selected phase II dose of 30 mg BID, dosed in 28 day cycles, in patients with r/r B or T cell malignancies.
# Up to 50 patients were enrolled in 5 cohorts; aggressive lymphoma, iNHL, CLL/SLL, PTCL (all receiving single agent cerdulatinib), and iNHL with cerdulatinib in combination with anti-CD20 therapy. Patients remained on drug until discontinuation due to progressive disease (PD), adverse event (AE), withdrawal of consent (WC), or at the discretion of the treating physician. […]
# [2] = system: patients with indolent B cell lymphoma (iNHL); experiment: Phase IIa study: clinical response (best response) to single agent cerdulatinib in r/r iNHL patients grouped by baseline B cell subsets; details: 30 mg BID
# Description: as §1
# Up to 50 patients were enrolled in 5 cohorts; aggressive lymphoma, iNHL, CLL/SLL, PTCL (all receiving single agent cerdulatinib), and iNHL with cerdulatinib in combination with anti-CD20 therapy. Patients remained on drug until discontinuation due to progressive disease (PD), adverse event (AE), withdrawal of consent (WC), or at the discretion of the treating physician.
# (§2) Forty patients with iNHL were enrolled in a cohort receiving single agent cerdulatinib. From this cohort, 30 ml of whole blood was collected from each patient at pre-dose at baseline (C1), cycle 2 day 1 (C2), cycle 3 day 1 (C3), and cycle 6 day 1 (C6) in 10 ml mononuclear cell protection tubes (CPT tubes, BD Bioscience, San Jose, CA) and immediately centrifuged to separate mononuclear cells from plasma and red blood cells at each clinical site. At each time point, tubes were shipped for same day delivery to Caprion Biosciences, Montreal Canada, for preparation and live cell freezing of peripheral blood mononuclear cells (PBMC) by ficoll gradient centrifugation using standard procedures. Banked PBMC’s were stored at -80° C. until 5-8 patient samples through cycle 6 were obtained to enable batched flow cytometry analysis of B cell subsets for each patient over time.
# A PCA analysis of the data was performed to identify subgroups of patients characterized by a common B cell phenotype. Subsequent analysis of the results of the PCA by hierarchical clustering was performed.
# [3] = system: circulating B cell subsets; experiment: B cell subpopulation analysis of patient PBMC by flow cytometry over time on cerdulatinib
# Description: as §2
# PBMC’s were thawed and rested overnight in RPMI containing 10% fetal bovine serum. Cells were then stained with a cocktail containing Aqua live/dead cell stain (Life Technologies, Carlsbad, CA), and the following antibodies all obtained from BD Biosciences; CD19 PE-Cy7, CD20 BUV395, HLA-DR APC-Cy7, CD27 BV786, IgD PE, CD10 BV650, CD38 BV711, CD138 BV421, IgG BV605, and IgM APC. Cells were stained for 1 hour at room temperature, washed in phosphate buffered saline containing 0.5% bovine serum albumin, and subjected to flow cytometry using the BD Cantos. A maximum number of events was collected, the median number of total B cells collected was 18,789. The B cell subset gating strategy is described in FIG. 1.
# Live B cells were then gated based on aqua viability stain and CD19. IgD and CD27 delineated double negative (DN), naïve, switched memory (SM), and non-switched memory (NSM). Within the naive cell area transitional B cells were identified based on CD10 expression. Within the SM area IgG and IgM switched B cells were identified. Plasma cells were identified based on high CD27 expression and CD138. Percent lymphocytes of total live PBMC’s were also calculated. All gating and calculation of B cell subset frequencies either from the total B cell gate or the immediate parent gate of a B cell subset were calculated using Flow Jo software (Tree Star, Inc., Ashland, OR), and analyzed.
# [4] = iNHL patients, baseline (C1) vs cycles 2, 3, 6, FIG. 5A
structure (smiles),measurement,setting,value
"CCS(=O)(=O)N1CCN(c2ccc(Nc3ncc(C(N)=O)c(NC4CC4)n3)cc2)CC1 [cerdulatinib, 4-(cyclopropylamino)-2-((4-(4-(ethylsulfonyl)piperazin-1-yl)phenyl)amino)pyrimidine-5-carboxamide]","Discontinuation due to AE (adverse event), number of patients",[1]; G1 (N=9),4.00
same,"Discontinuation due to AE (adverse event), percent of patients",[1]; G1 (N=9),44.4%
same,"Discontinuation due to PD (progressive disease), number of patients",[1]; G1 (N=9),1.00
same,"Discontinuation due to PD (progressive disease), percent of patients",[1]; G1 (N=9),11.1%
same,"Discontinuation due to AE (adverse event), number of patients",[1]; G2 (N=16),1.00
same,"Discontinuation due to AE (adverse event), percent of patients",[1]; G2 (N=16),6.3%
same,"Discontinuation due to PD (progressive disease), number of patients",[1]; G2 (N=16),6.00
same,"Discontinuation due to PD (progressive disease), percent of patients",[1]; G2 (N=16),37.5%
same,"Discontinuation due to AE (adverse event), number of patients",[1]; G2 + G3 (N=29),3.00
same,"Discontinuation due to AE (adverse event), percent of patients",[1]; G2 + G3 (N=29),10.3%
same,"Discontinuation due to PD (progressive disease), number of patients",[1]; G2 + G3 (N=29),11.0
same,"Discontinuation due to PD (progressive disease), percent of patients",[1]; G2 + G3 (N=29),37.9%
same,"Discontinuation due to AE (adverse event), number of patients",[1]; G3 (N=13),2.00
same,"Discontinuation due to AE (adverse event), percent of patients",[1]; G3 (N=13),15.4%
same,"Discontinuation due to PD (progressive disease), number of patients",[1]; G3 (N=13),5.00
same,"Discontinuation due to PD (progressive disease), percent of patients",[1]; G3 (N=13),38.5%
same,"Discontinuation due to AE (adverse event), number of patients",[1]; Total (N=38),7.00
same,"Discontinuation due to AE (adverse event), percent of patients",[1]; Total (N=38),18.4%
same,"Discontinuation due to PD (progressive disease), number of patients",[1]; Total (N=38),12.0
same,"Discontinuation due to PD (progressive disease), percent of patients",[1]; Total (N=38),31.6%
same,"Best Response CR, number of patients",[2]; G1 (N=9),1.00
same,"Best Response CR, percent of patients",[2]; G1 (N=9),11.1%
same,"Best Response PD, number of patients",[2]; G1 (N=9),1.00
same,"Best Response PD, percent of patients",[2]; G1 (N=9),11.1%
same,"Best Response PR, number of patients",[2]; G1 (N=9),1.00
same,"Best Response PR, percent of patients",[2]; G1 (N=9),11.1%
same,"Best Response SD, number of patients",[2]; G1 (N=9),2.00
same,"Best Response SD, percent of patients",[2]; G1 (N=9),22.2%
same,"ORR (overall response rate), percent of patients",[2]; G1 (N=9),22% and 22.2%
same,"ORR + clinical benefit, number of patients",[2]; G1 (N=9),4.00
same,"ORR + clinical benefit, percent of patients",[2]; G1 (N=9),44.4%
same,"ORR, number of patients",[2]; G1 (N=9),2.00
same,"Best Response CR, number of patients",[2]; G2 (N=16),5.00
same,"Best Response CR, percent of patients",[2]; G2 (N=16),31.3%
same,"Best Response PD, number of patients",[2]; G2 (N=16),0 (0%)
same,"Best Response PD, percent of patients",[2]; G2 (N=16),0 (0%)
same,"Best Response PR, number of patients",[2]; G2 (N=16),8.00
same,"Best Response PR, percent of patients",[2]; G2 (N=16),50.0%
same,"Best Response SD, number of patients",[2]; G2 (N=16),1.00
same,"Best Response SD, percent of patients",[2]; G2 (N=16),6.3%
same,"ORR (overall response rate), percent of patients",[2]; G2 (N=16),81% and 81.3%
same,"ORR + clinical benefit, number of patients",[2]; G2 (N=16),14.0
same,"ORR + clinical benefit, percent of patients",[2]; G2 (N=16),87.5%
same,"ORR, number of patients",[2]; G2 (N=16),13.0
same,"Best Response CR, number of patients",[2]; G2 + G3 (N=29),6.00
same,"Best Response CR, percent of patients",[2]; G2 + G3 (N=29),20.7%
same,"Best Response PD, number of patients",[2]; G2 + G3 (N=29),3.00
same,"Best Response PD, percent of patients",[2]; G2 + G3 (N=29),10.3%
same,"Best Response PR, number of patients",[2]; G2 + G3 (N=29),14.0
same,"Best Response PR, percent of patients",[2]; G2 + G3 (N=29),48.3%
same,"Best Response SD, number of patients",[2]; G2 + G3 (N=29),4.00
same,"Best Response SD, percent of patients",[2]; G2 + G3 (N=29),13.8%
same,"ORR (overall response rate), percent of patients",[2]; G2 + G3 (N=29),69.0%
same,"ORR + clinical benefit, number of patients",[2]; G2 + G3 (N=29),24.0
same,"ORR + clinical benefit, percent of patients",[2]; G2 + G3 (N=29),82.8%
same,"ORR, number of patients",[2]; G2 + G3 (N=29),20.0
same,"Best Response CR, number of patients",[2]; G3 (N=13),1.00
same,"Best Response CR, percent of patients",[2]; G3 (N=13),7.7%
same,"Best Response PD, number of patients",[2]; G3 (N=13),3.00
same,"Best Response PD, percent of patients",[2]; G3 (N=13),23.1%
same,"Best Response PR, number of patients",[2]; G3 (N=13),6.00
same,"Best Response PR, percent of patients",[2]; G3 (N=13),46.2%
same,"Best Response SD, number of patients",[2]; G3 (N=13),3.00
same,"Best Response SD, percent of patients",[2]; G3 (N=13),23.1%
same,"ORR (overall response rate), percent of patients",[2]; G3 (N=13),53.8%
same,"ORR + clinical benefit, number of patients",[2]; G3 (N=13),10.0
same,"ORR + clinical benefit, percent of patients",[2]; G3 (N=13),76.9%
same,"ORR, number of patients",[2]; G3 (N=13),7.00
same,"Best Response CR, number of patients",[2]; Total (N=38),7.00
same,"Best Response CR, percent of patients",[2]; Total (N=38),18.4%
same,"Best Response PD, number of patients",[2]; Total (N=38),4.00
same,"Best Response PD, percent of patients",[2]; Total (N=38),10.5%
same,"Best Response PR, number of patients",[2]; Total (N=38),15.0
same,"Best Response PR, percent of patients",[2]; Total (N=38),39.5%
same,"Best Response SD, number of patients",[2]; Total (N=38),6.00
same,"Best Response SD, percent of patients",[2]; Total (N=38),15.8%
same,"ORR (overall response rate), percent of patients",[2]; Total (N=38),57.9%
same,"ORR + clinical benefit, number of patients",[2]; Total (N=38),28.0
same,"ORR + clinical benefit, percent of patients",[2]; Total (N=38),73.7%
same,"ORR, number of patients",[2]; Total (N=38),22.0
same,CD10 and CD38 expression on transitional B cells over time,"[3]; iNHL patients on cerdulatinib, FIG. 5B representative Group 1 patient",loss of CD10 and CD38 expression
same,Frequency of B cells of lymphocytes over time,[3]; [4],did not change
same,Frequency of CD10 negative (non-transitional) naïve B cells over time,[3]; [4],rise and increase
same,Frequency of total naïve B cells over time,[3]; [4],did not change
same,Frequency of transitional (CD10+) B cells of total B cells over time,[3]; [4],decreased; also recorded: induces loss of transitional B cell phenotype
same,Frequencies of switched memory or double negative B cells over time,"[3]; iNHL patients, baseline (C1) vs cycles 2, 3, 6, FIG. 8",no meaningful impact; also recorded: does not impact
same,Impact on the measured B cell populations,"[3]; iNHL patients, over a period of 6 months on therapy",very little impact
